Bridges are numbered along the chain shown (N, C = ends). Where no end group is shown, it is not given here.

This is an account of results in US20030208035A1, “Antifungal and/or antibacterial peptides, preparation methods, compositions containing same and methods of treating mammals and/or plants” (priority 2000, published 2003).

One data set has as its system C. albicans. Format: cell-based, Candida albicans. Conditions: 24 h. On the procedure: (§1) Candida yeasts (C. albicans, C. glabrata, C. dubliensis, C. tropicalis, C. kefyr, C. krusei and C. parapsilosis—donated by Dr. H. Koenig, Hôpital Civil, Strasbourg), fluconazole-resistant C. albicans (n^o245962, n^o2332, n^o246335 and n^o3552, donated by Drs. J.Meis and J. Mouton, University Hospital, Microbiology Department, Nijmegen, Netherlands), and Cryptoccocus neoformans (donated by Dr. H. Koenig, Hôpital Civil, Strasbourg) were seeded on Sabouraud-Cloramphenicol Agar slant gelose (Biomerieux) and left to incubate for 24 h at 30° C. (Candida sp.) and for 72 h at 37° C. (Cryptoccocus neoformans).
(§2) Some yeast colonies were placed in suspension in liquid Sabouraud medium (Biomerieux) to obtain a final concentration of 0.1 OD at 600 nm corresponding to 2.5.10^6 yeasts/ml.
(§3) The yeast suspension was adjusted to 5.10^3 yeast/ml in Sabouraud medium.
(§4) 100 μl of peptide dilutions (concentration of 50 with 0.097 μg/ml peptide) were deposited in microtitration plates. After adding […] of yeast suspension with 5.10^3 yeast/ml i.e. 500 yeasts, the test plates were incubated 24 h at 30° C. (Candida) under slow shaking or 72 h at 37° C. (Cryptoccocus).
(§5) Determination of minimal inhibiting concentrations (MIC) was made by measuring absorbency at 600 nm using a spectrophotometer-microtitration plate reader. The MIC score was set at a growth inhibition rate of 50%.

A short description of data set [1]: Acute toxicity study in mice. Conditions: for acute toxicity: mice, intravenous, in 0.9% NaCl, injections of 30 mg/kg repeated at 30-minute intervals, 3 times daily for 3 days. Format: in vivo. On the procedure:
[…] The peptides were solubilised in a 0.9% NaCl solution; the injected volume was 150 μl injected in 45 seconds via the lateral tail vein.

The next data set relates to C. dubliensis. Format: cell-based. The method, then: as §1, §2, §3, §4, §5
A further data set deals with C. parapsilosis. Format: cell-based. The method, then: as §1, §2, §3, §4, §5
Data set [2] deals with fluconazole-resistant C. albicans. In words: microbe, parasite or virus in culture. Format: cell-based, Candida albicans. The following applies: fluconazole-resistant. The method, then: as §1, §2, §3, §4, §5

As to “DKLIGSCVWGAVNYTSNCNAECKRRGYKGGHCGSFLNVNCWCET (disulfide 7-32, 18-40, 22-42 (inferred)) [pEM35]”, the MIC against C. albicans was found to be 1.56 µg/mL. In addition, the acute toxicity result in data set [1] is “no acute toxicity was observed”. Further, the “delayed growth (weight) on the day after the injection” value in data set [1] (single i.v. dose 200 mg/kg) and in data set [1] (single i.v. dose 400 mg/kg) was “approximately 1 g” throughout.

In the case of “DKLIGSCVWGAVNYTSNCNAECKRRGYKGGHCGSFANVNCWCQT (disulfide 7-32, 18-40, 22-42 (inferred)) [pEM31]”, the MIC in the data set on C. dubliensis amounted to 6.25 µg/mL; against C. parapsilosis it was 1.56 µg/mL.

Consider “DKLIGSCVWGAVNYTSNCNAECKRRGYKGGHCGSFLNVNCWCQT (disulfide 7-32, 18-40, 22-42 (inferred)) [pEM46]”, for which the results for the MIC in the data set with C. dubliensis and against C. parapsilosis were 3.125 µg/mL and 0.78 µg/mL, respectively.

As for “DKLIGSCVWGAVNYTSNCRAECKRRGYKGGHCGSFANVNCWCET (disulfide 7-32, 18-40, 22-42 (inferred)) [pEM51]”, the MIC in data set [2] came to 1.56 µg/mL. Further, the acute toxicity result in data set [1] is on record as “no acute toxicity was observed”. Further, the “delayed growth (weight) on the day after the injection” value in data set [1] (single i.v. dose 200 mg/kg) is on record as “approximately 1 g”; in data set [1] (single i.v. dose 300 mg/kg) it was “approximately 1 g”; in data set [1] (single i.v. dose 400 mg/kg), “approximately 2 g”.
